Laboratory results reported in article PMC9696085, “Fully Symmetric Cyclodextrin Polycarboxylates: How to Determine Reliable Protonation Constants from NMR Titration Data” (International Journal of Molecular Sciences, 2022).
Values joined by “and” are separate entries in the source; they are usually repeats but may differ in a detail not shown here. Equal entries are not always repeated. Where two headings read alike, the source gives them in different places.

Assay: 1H NMR-pH titration, protonation constants
Assay type: physicochemical
Conditions: for pKa: H2O:D2O = 9:1 solvent mixture; for log k: site-binding model without any pair-interactivity parameters (unsatisfactory fit)
Procedure: The pH meter readings were recorded using a Metrohm pH meter, equipped with a Metrohm 6.0234.110 combined glass electrode. A four-point calibration using pH 2.00, pH 4.00, pH 7.00 and pH 11.00 standard buffer solutions were performed directly before pH adjustments. The pH measurements were performed in 25 mL vessels with proper stirring before transferring 600 μL sample solutions into the NMR tubes. Solutions were prepared in the pH range of 1.50–8.70 with 0.30 increments using 0.9 M, 0.5 M and 0.1 M sodium hydroxide and hydrochloric acid solutions in H2O:D2O = 9:1.
For structural characterizations of CD derivatives in D2O, a 600 MHz Varian DDR NMR spectrometer equipped with a 5 mm inverse-detection gradient probe or a 400 MHz Varian Mercury Plus spectrometer equipped with a 5mm Varian 400 Automation Triple Resonance Broadband Pulsed Field Gradient probe was used. For NMR-pH titrations, the same instruments were used. The pH-dependent series of ^1H NMR spectra were recorded in a solvent mixture of H2O:D2O = 9:1 by volume, where the constant ionic strength and the buffer capacity were adjusted using 0.05 M sodium chloride and 0.05 M acetic acid-d4. An appropriate amount of CD was weighed to obtain a 1 mM solution and finally one drop of methanol was added as a chemical shift reference (3.310 ppm). The water resonance was diminished by the dpfgse pulse sequence or presaturation. All the spectra were processed using the MestReNova v9.0.1-13254 (Mestralab Research, S.L., Santiago de Compostela, Spain) software.
The standard macroscopic evaluation of NMR-pH titration curves (Equation (3) in Section 2.2) was performed with the following software tools: Microcal Origin Pro 8 (OriginLab Corp., Northampton, MA, USA), HypNMR2018 [38], OPIUM [39] and home-written R scripts (R version 4.1.2, The R Foundation, Vienna, Austria) using the nls module. The equidistant macroscopic (Equation (8)) and Q-fitting (Equations (4) and (11)) models were fitted both by Origin and our R-scripts to verify their equivalent performance regarding statistical description of the parameter estimates. The microscopic cluster expansion model in Section 2.5 requires summation of >100 variables which is unfeasible in the form of an explicit model function required by commercial data-fitting software like Origin. The enumeration of microspecies was therefore accomplished in a custom-written R script. To assess the robustness of our data-fitting model as well as the error propagation of the optimized log k and pε parameters to the derived log K macroconstants, Monte Carlo simulations on >1000 replicates were performed in R.

[1] = ED macro or Q-fitting evaluation, ? = physically unrealistic, SD in parentheses
[2] = ED macro or Q-fitting evaluation, H2O:D2O = 9:1, 0.05 M NaCl, SD in parentheses
[3] = from ED macro or Q-fitting macroconstants by Eq. 18
[4] = from ED macro or Q-fitting macroconstants by Eq. 18, ? = physically unrealistic
[5] = site-binding (SB) microscopic evaluation
[6] = site-binding (SB) microscopic evaluation, converted from log kA and pε, errors by Monte Carlo
[7] = site-binding model with two interactivity parameters, standard deviation 138, overparametrized
[8] = converted from optimized microscopic basicity parameters (site-binding model)

With `O=C(O)CCSC[C@H]1O[C@@H]2O[C@H]3[C@H](O)[C@@H](O)[C@@H](O[C@H]4[C@H](O)[C@@H](O)[C@@H](O[C@H]5[C@H](O)[C@@H](O)[C@@H](O[C@H]6[C@H](O)[C@@H](O)[C@@H](O[C@H]7[C@H](O)[C@@H](O)[C@@H](O[C@H]1[C@H](O)[C@H]2O)O[C@@H]7CSCCC(=O)O)O[C@@H]6CSCCC(=O)O)O[C@@H]5CSCCC(=O)O)O[C@@H]4CSCCC(=O)O)O[C@@H]3CSCCC(=O)O` [Suα-CD, sualphadex] the “log K4” value [1] was 4.70 (0.14), the “log K6” value [1] was 3.77 (0.07) and the “log K1” value [2] was 6.43 (0.07). For the same compound, the “log K2” value [2] was 5.79 (0.09), the “log K3” value [2] was 5.26 (0.11) and the pKa (converted from optimized microscopic basicity parameters (site-binding model), read-out: macroscopic pKa, 1st of the set) was 3.84. The pKa (converted from optimized microscopic basicity parameters (site-binding model), read-out: macroscopic pKa, 2nd of the set) was 4.35, the pKa (converted from optimized microscopic basicity parameters (site-binding model), read-out: macroscopic pKa, 3rd of the set) was 4.81 and the pKa (converted from optimized microscopic basicity parameters (site-binding model), read-out: macroscopic pKa, 4th of the set) was 5.31. The pKa (converted from optimized microscopic basicity parameters (site-binding model), read-out: macroscopic pKa, 5th of the set) was 5.78, the pKa (converted from optimized microscopic basicity parameters (site-binding model), read-out: macroscopic pKa, 6th of the set) was 6.28 and the “log k¯1 (averaged microconstant)” value [3] was 5.65 (0.07). The “log k¯2 (averaged microconstant)” value [3] was 5.39 (0.09), the “log k¯3 (averaged microconstant)” value [3] was 5.13 (0.12) and the “log k¯6 (averaged microconstant)” value [4] was 4.55 (0.07). For the same compound, the “log k¯1 (averaged microconstant)” value [5] was 5.51 (0.02), the “log k¯2 (averaged microconstant)” value [5] was 5.38 (0.02) and the “log k¯3 (averaged microconstant)” value [5] was 5.18 (0.02). The “log k¯4 (averaged microconstant)” value [5] was 4.94 (0.02), the “log k¯5 (averaged microconstant)” value [5] was 4.75 (0.02) and the “log k¯6 (averaged microconstant)” value [5] was 4.62 (0.02). For the same compound, the “log K1” value [6] was 6.28 (0.02), the “log K2” value [6] was 5.78 (0.02) and the “log K3” value [6] was 5.31 (0.02). The “log K4” value [6] was 4.81 (0.02), the “log K5” value [6] was 4.35 (0.02) and the “log K6” value [6] was 3.84 (0.02). The “log kA” value (site-binding model with two interactivity parameters (pε12 and pε13), overparametrized) was 5.63 (7), the pε12 [7] was 0.28 and the pε13 [7] was 0.28. The log k was 5.049.
With `O=C(O)CCSC[C@H]1O[C@@H]2O[C@H]3[C@H](O)[C@@H](O)[C@@H](O[C@H]4[C@H](O)[C@@H](O)[C@@H](O[C@H]5[C@H](O)[C@@H](O)[C@@H](O[C@H]6[C@H](O)[C@@H](O)[C@@H](O[C@H]7[C@H](O)[C@@H](O)[C@@H](O[C@H]8[C@H](O)[C@@H](O)[C@@H](O[C@H]9[C@H](O)[C@@H](O)[C@@H](O[C@H]1[C@H](O)[C@H]2O)O[C@@H]9CO)O[C@@H]8CO)O[C@@H]7CO)O[C@@H]6CO)O[C@@H]5CO)O[C@@H]4CO)O[C@@H]3CO` [mono-Suγ-CD, mono-sugammadex] the “log K” value (standard macroscopic evaluation, Equation (3), n = 1) was 4.35 (0.01).
For `O=C(O)CCSC[C@H]1O[C@@H]2O[C@H]3[C@H](O)[C@@H](O)[C@@H](O[C@H]4[C@H](O)[C@@H](O)[C@@H](O[C@H]5[C@H](O)[C@@H](O)[C@@H](O[C@H]6[C@H](O)[C@@H](O)[C@@H](O[C@H]7[C@H](O)[C@@H](O)[C@@H](O[C@H]8[C@H](O)[C@@H](O)[C@@H](O[C@H]9[C@H](O)[C@@H](O)[C@@H](O[C@H]1[C@H](O)[C@H]2O)O[C@@H]9CSCCC(=O)O)O[C@@H]8CSCCC(=O)O)O[C@@H]7CSCCC(=O)O)O[C@@H]6CSCCC(=O)O)O[C@@H]5CSCCC(=O)O)O[C@@H]4CSCCC(=O)O)O[C@@H]3CSCCC(=O)O` [Suγ-CD, sugammadex, reference compound], the “log K4” value [1] was 5.28 (0.22), the “log K5” value [1] was 5.14 (0.22) and the “log K6” value [1] was 4.59 (0.17). For the same compound, the “log K1” value [2] was 6.68 (0.08), the “log K2” value [2] was 6.17 (0.12) and the “log K3” value [2] was 5.88 (0.16). The “log K8” value (ED macro or Q-fitting evaluation, SD in parentheses) was 3.78 (0.07), the “macroscopic pKa, 1st of the set” value [8] was 3.83 and the “macroscopic pKa, 2nd of the set” value [8] was 4.28. The “macroscopic pKa, 3rd of the set” value [8] was 4.65, the “macroscopic pKa, 4th of the set” value [8] was 5.03 and the “macroscopic pKa, 5th of the set” value [8] was 5.43. The “macroscopic pKa, 6th of the set” value [8] was 5.81, the “macroscopic pKa, 7th of the set” value [8] was 6.18 and the “macroscopic pKa, 8th of the set” value [8] was 6.64. The “log k¯1 (averaged microconstant)” value [3] was 5.77 (0.08), the “log k¯2 (averaged microconstant)” value [3] was 5.63 (0.12) and the “log k¯3 (averaged microconstant)” value [3] was 5.58 (0.16). For the same compound, the “log k¯8 (averaged microconstant)” value [3] was 4.69 (0.07), the “log k¯4 (averaged microconstant)” value [4] was 5.18 (0.22) and the “log k¯5 (averaged microconstant)” value [4] was 5.24 (0.22). The “log k¯6 (averaged microconstant)” value [4] was 4.89 (0.17), the “log k¯1 (averaged microconstant)” value [5] was 5.73 (0.02) and the “log k¯2 (averaged microconstant)” value [5] was 5.64 (0.02). The “log k¯3 (averaged microconstant)” value [5] was 5.51 (0.02), the “log k¯4 (averaged microconstant)” value [5] was 5.33 (0.01) and the “log k¯5 (averaged microconstant)” value [5] was 5.13 (0.01). For the same compound, the “log k¯6 (averaged microconstant)” value [5] was 4.95 (0.02), the “log k¯7 (averaged microconstant)” value [5] was 4.82 (0.02) and the “log k¯8 (averaged microconstant)” value [5] was 4.73 (0.02). For the same compound, the “log K1” value [6] was 6.64 (0.02), the “log K2” value [6] was 6.18 (0.02) and the “log K3” value [6] was 5.81 (0.02). The “log K4” value [6] was 5.43 (0.01), the “log K5” value [6] was 5.03 (0.01) and the “log K6” value [6] was 4.65 (0.02). The “log K7” value [6] was 4.28 (0.02), the “log K8” value [6] was 3.83 (0.02) and the “pε12 = averaged interactivity parameter pε¯” value (site-binding model with a single interactivity parameter) was 0.503. The “log kA (carboxylate core microconstant)” value (site-binding model with a single interactivity parameter pε12 (pε¯)) was 5.735 and 5.73 and the log k was 5.22.
